Measurements published in article PMC10287566, “Signaling-specific inhibition of the CB1 receptor for cannabis use disorder: phase 1 and phase 2a randomized trials” (Nature Medicine, 2023).

Tests used:
DIO mice = test: Food intake and body weight in diet-induced obese mice, repeated treatment; type: in vivo; conditions: mice, acute and repeated 28 d, highest dose tested 15 mg/kg
Experimental: Body weight and food intake were studied because they are reduced by repeated treatment with rimonabant both in mice[31] and in humans. DIO mice were used because the effects of CB1 antagonists are of greater amplitude in obese mice than in lean mice. Male C57BL/6J mice (8 weeks old) were fed ad libitum with a high-fat diet (HFD) for 8 weeks before the start of the pharmacological treatments. During pharmacological treatments, the HFD was maintained, and food intake and body weight were measured daily. The food consumed was calculated by subtracting the food left in the hoppers from the initial pre-weighed amount.

rats = test: Irwin test and body temperature (GLP); type: in vivo; conditions: rats, 2, 9 and 36 mg kg^−1 oral
Experimental: The study involved four groups of six male Wistar rats weighing between 154.0 g and 185.9 g. […] On study day, animals were first scored by the Irwin standardized observation battery, and body temperature was measured. […] Irwin scores and measurement of body temperature were done again at 1, 3, 6, 8 and 24 h after dose.

SMILES: COc1ccc(CO[C@H]2CC[C@@]3(C)C(=CC[C@H]4[C@@H]5CC[C@H](C(C)=O)[C@@]5(C)CC[C@@H]43)C2)cc1 [AEF0117, 3β-(4-methoxybenzyloxy)pregn-5-en-20-one]
- Overall effect: inhibition of spontaneous food-intake (DIO mice): No
- effect on spontaneous behavior in the home cage (Irwin test) (rats): had no effect
